Test results taken from ChEMBL document CHEMBL4823268 (Eur J Med Chem, 2021).
Calls of active or inactive are those of the source. The calls are words filed in the database; no cut-off is given here.

How the values were obtained:
[1] = molecular target: T1, Glycogen synthase kinase-3 beta (Homo sapiens, UniProt P49841); experiment: biochemical; type: cell-based, Sf9
Target sequence in this assay (P49841 whole entry): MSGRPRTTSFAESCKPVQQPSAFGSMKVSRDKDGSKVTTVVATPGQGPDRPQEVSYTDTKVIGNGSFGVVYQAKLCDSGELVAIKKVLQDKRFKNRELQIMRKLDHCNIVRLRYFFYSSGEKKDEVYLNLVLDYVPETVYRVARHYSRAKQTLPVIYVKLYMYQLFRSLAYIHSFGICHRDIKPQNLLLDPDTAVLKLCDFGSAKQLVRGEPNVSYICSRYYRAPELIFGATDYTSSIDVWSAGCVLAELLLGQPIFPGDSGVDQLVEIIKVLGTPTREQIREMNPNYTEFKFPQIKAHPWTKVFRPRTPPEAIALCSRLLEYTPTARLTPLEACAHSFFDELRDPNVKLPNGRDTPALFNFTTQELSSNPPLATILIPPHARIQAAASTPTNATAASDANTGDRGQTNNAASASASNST

[2] = molecular target: Dual specificity tyrosine-phosphorylation-regulated kinase 1A (Rattus norvegicus, UniProt Q63470); experiment: Inhibition of rat recombinant DYRK1A expressed in Escherichia coli using RRRFRPASPLRGPPK as substrate by ADP-Glo kinase assay
[3] = Permeability of compound by PAMPA-BBB assay
Mus musculus [4] = experiment: Improvement in learning and spatial memory in mouse harboring APP/PSI/Tau assessed as improvement in trajectory at […], po for 30 consecutive days and studied for 5 days by Morris water maze test relative to control; type: functional, organism-based; conditions: time 5.0 day
[5] = molecular target: T1, Glycogen synthase kinase-3 beta; experiment: Inhibition of human full length GSK3beta expressed in baculovirus in Sf9 insect cells assessed as enzyme activity using YRRAAVPPSPSLSRHSSPHQ(pS)EDEEE as substrate at 0.7 uM by ADP-Glo kinase assay relative to control; parameters: scale not given: the % may be the effect or the level left
Target sequence in this assay (P49841 whole entry, looked up): as the sequence (P49841 whole entry) above

[6] = molecular target: T1, Glycogen synthase kinase-3 beta; experiment: Inhibition of human full length GSK3beta expressed in baculovirus in Sf9 insect cells assessed as enzyme activity using YRRAAVPPSPSLSRHSSPHQ(pS)EDEEE as substrate at 0.14 uM by ADP-Glo kinase assay relative to control; parameters: scale not given: the % may be the effect or the level left
Target sequence in this assay (P49841 whole entry, looked up): as the sequence (P49841 whole entry) above

[7] = Neurotoxicity against human SH-SY5Y cells assessed as cell viability at 10 uM measured for 24 to 72 hrs by MTT assay; type: cell-based; conditions: time 24-72 hrs
[8] = Neurotoxicity against human SH-SY5Y cells assessed as cell viability at 15 to 20 uM measured for 36 to 72 hrs by MTT assay; type: cell-based; conditions: dose lower 15 µM, time lower 36 hrs, dose upper 20 µM, time upper 72 hrs
L02 = experiment: Cytotoxicity against human HL7702 cells assessed as cell viability measured at 5 to 20 uM for 24 to 72 hrs by MTT assay; type: cell-based; conditions: l02, 20 µM, dose lower 5 µM, time lower 24 hrs, dose upper 20 µM, time upper 72 hrs
[9] = molecular target: T1, Glycogen synthase kinase-3 beta; experiment: Inhibition of GSK3beta in human SH-SY5Y cells assessed as decrease in OKA-induce tau-S396 hyperphosphorylation at 250 to 1000 nM by Western blot analysis; type: cell-based; conditions: dose 250-1000 nM
Target sequence in this assay (P49841 whole entry, looked up): as the sequence (P49841 whole entry) above

[10] = molecular target: Dual specificity tyrosine-phosphorylation-regulated kinase 1A (Homo sapiens) (UniProt Q13627); experiment: Inhibition of DYRK1A in human SH-SY5Y cells assessed as decrease in OKA-induce DYRK1A-Tyr321/27 hyperphosphorylation at 250 to 1000 nM by Western blot analysis; type: cell-based; conditions: dose 250-1000 nM
[11] = molecular target: T1, Glycogen synthase kinase-3 beta; experiment: Inhibition of GSK3beta in human SH-SY5Y cells assessed as increase in OKA-induce GSK3beta at serine 9 hyperphosphorylation by Western blot analysis; type: cell-based
Target sequence in this assay (P49841 whole entry, looked up): as the sequence (P49841 whole entry) above

[12] = molecular target: T1, Glycogen synthase kinase-3 beta; experiment: Inhibition of GSK3beta phosphorylation expression in human SH-SY5Y cells at 250 to 1000 nM by Western blot analysis; type: cell-based; conditions: dose 250-1000 nM
Target sequence in this assay (P49841 whole entry, looked up): as the sequence (P49841 whole entry) above

SH-SY5Y = experiment: Reduction in neurofibrillary tangles formation in OKA-treated human SH-SY5Y cells at 250 to 1000 nM by Western blot analysis; type: functional, cell-based; conditions: dose 250-1000 nM
Mus musculus [13] = experiment: Improvement in learning and spatial memory in mouse harboring APP/PSI/Tau assessed as decrease in escape latency at 10 to 30 mg/kg, po for 30 consecutive days and studied for 5 days by Morris water maze test relative to control; type: functional, organism-based; conditions: dose 10-30 mg/kg, time 30.0 day
Mus musculus [14] = experiment: Cognitive enhancing effect in mouse harboring APP/PSI/Tau assessed as improvement in number of crossing the virtual platform at 10 to 30 mg/kg, po for 30 consecutive days and studied for 5 days by Morris water maze test relative to control; type: functional, organism-based; conditions: dose 10-30 mg/kg, time 30.0 day
Mus musculus [15] = experiment: Cognitive enhancing effect in mouse harboring APP/PSI/Tau assessed as improvement in time spent in the platform quadrant at 10 to 30 mg/kg, po for 30 consecutive days and studied for 5 days by Morris water maze test relative to control; type: functional, organism-based; conditions: dose 10-30 mg/kg, time 30.0 day
Mus musculus [16] = experiment: Improvement in learning and spatial memory in mouse harboring APP/PSI/Tau assessed as improvement in trajectory at 20 mg/kg, po for 30 consecutive days and studied for 5 days by Morris water maze test relative to control; type: functional, organism-based; conditions: time 30.0 day

Row | Compound | IC50 [1] [µM] | Papp [3] [×10⁻⁶ cm/s] | also measured
1 | COc1ccc2c(c1)[nH]c1cnc(C)cc12 | > 10 |  | 
2 | O=C(Nc1cc2c(cn1)[nH]c1cc(F)ccc12)C1CC1 | > 10 |  | 
3 | CN[C@@H]1C[C@H]2O[C@@](C)([C@@H]1OC)n1c3ccccc3c3c4c(c5c6ccccc6n2c5c31)C(=O)NC4 [STAUROSPORINE] |  |  | IC50 [2]: 12 nM
4 | NC(=O)c1ccc2c(c1)[nH]c1cnc(NC(=O)C3CC3)cc12 | > 10 |  | 
5 | O=C(Nc1cc2c(cn1)[nH]c1cc(-c3cccnc3)ccc12)C1CC1 | > 10 |  | 
6 | O=C(Nc1nccc2c1[nH]c1cc(-c3cccnc3)ccc12)C1CC1 | > 10 |  | 
7 | COc1ccc2c(c1)[nH]c1cnc(NC(=O)C3CC3)cc12 | 8.1 |  | 
8 | O=C(Nc1cc2c(cn1)[nH]c1cc(C(F)(F)F)ccc12)C1CC1 | > 10 |  | 
9 | O=C(Nc1cc2c(cn1)[nH]c1cc(Cl)ccc12)C1CC1 | > 10 |  | 
10 | NC(=O)c1ccc2c(c1)[nH]c1c(NC(=O)C3CC3)nccc12 | 0.2 | 0.7 | 
11 | COc1ccc(-c2ccc3c(c2)[nH]c2cnc(NC(=O)C4CC4)cc23)cc1 | > 10 |  | 
12 | Clc1cccc(Cl)c1N=C1NCCN1 [CLONIDINE] |  | 4 | 
13 | O=C(Nc1nccc2c1[nH]c1cc(C(F)(F)F)ccc12)C1CC1 | > 10 |  | 
14 | [Cl-].[Li+] |  |  | Activity (Mus musculus [4]): Active
15 | O=Cc1ccc2c(c1)[nH]c1c(NC(=O)C3CC3)nccc12 | 0.4 | 14.3 | 
16 | COC(=O)c1ccc2c(c1)[nH]c1c(NC(=O)C3CC3)nccc12 | 0.071 | 16.5 | Activity [5]: 1%; Activity [6]: 10%; Activity [7]: Non-Toxic; Activity [8]: Non-Toxic; Activity (L02): Toxic; Activity [9]: Active; Activity [10]: Active; Activity [11]: Dose-Dependent Effect; Activity [12]: Active; Activity (SH-SY5Y): Active; Activity (Mus musculus [13]): Active; Activity (Mus musculus [14]): Active; Activity (Mus musculus [15]): Active
17 | O=C(Nc1nccc2c1[nH]c1cc(F)ccc12)C1CC1 | 4.8 | 33.3 | 
18 | O=C(Nc1nccc2c1[nH]c1cc(OC(F)(F)F)ccc12)C1CC1 | 7.62 |  | 
19 | O=Cc1ccc2c(c1)[nH]c1cnc(NC(=O)C3CC3)cc12 | > 10 |  | 
20 | O=C(Nc1cc2c(cn1)[nH]c1cc(OC(F)(F)F)ccc12)C1CC1 | > 10 |  | 
21 | N#Cc1ccc2c(c1)[nH]c1c(NC(=O)C3CC3)nccc12 | > 10 |  | 
22 | N#Cc1ccc2c(c1)[nH]c1cnc(NC(=O)C3CC3)cc12 | > 10 |  | 
23 | COc1ccc2c(c1)[nH]c1c(C)nccc12 [HARMINE] |  | 44.6 | Activity (Mus musculus [16]): Active
24 | COc1ccc2c(c1)[nH]c1c(NC(=O)C3CC3)nccc12 | 0.144 | 15.6 | 
25 | COC(=O)c1ccc2c(c1)[nH]c1cnc(NC(=O)C3CC3)cc12 | > 10 |  | 
26 | O=C(Nc1nccc2c1[nH]c1cc(Cl)ccc12)C1CC1 | 5.15 | 21.5 | 
27 | COc1ccc(-c2ccc3c(c2)[nH]c2c(NC(=O)C4CC4)nccc23)cc1 | > 10 |  | 
28 | O=C(Nc1nccc2c1[nH]c1cc(-c3ccccc3)ccc12)C1CC1 | 6.59 |  | 
29 | Cn1c(=O)c2c(ncn2C)n(C)c1=O [CAFFEINE] |  | 3.2 | 
